Experimental data: article PMC8780855, “Synthesis, Crystallographic, Quantum Chemical, Antitumor, and Molecular Docking/Dynamic Studies of 4-Hydroxycoumarin-Neurotransmitter Derivatives” (International Journal of Molecular Sciences, 2022)
Where two headings read alike, the source gives them in different places.

Experiments:
[1] = system: HCT-116 cells; experiment: MTT cytotoxicity assay, HCT-116; format: cell-based, human; conditions: for IC50: Homo sapiens, MTT; for Selectivity index HCT-116/MRC-5 24 h: SI between HCT-116 and MRC-5, 24 h; for Selectivity index HCT-116/MRC-5 72 h: SI between HCT-116 and MRC-5, 72 h
Procedure: (§1) The in vitro cytotoxic activity of the tested compounds was investigated on four model systems: human colorectal carcinoma HCT-116, human breast cancer MDA-MB-231, human cervical cancer HeLa, and human healthy fibroblast MRC-5 cell lines. The cell lines of low passages were purchased from ECACC and were cultivated in Dulbecco’s Modified Eagle Medium (DMEM; Sigma-Aldrich, Germany, D5796) supplemented with 10% fetal bovine serum (Sigma-Aldrich, F4135-500ML) and 1% penicillin/streptomycin (Sigma-Aldrich, P4333-100ML) in 75 cm^2 culture flasks. The cells were harvested in an incubator under a humidified atmosphere with 5% CO2 at a physiological temperature of 37 °C, and after a few passages and a confluence of about 90%, the cells were used for the MTT assay.
(§2) The capacity of tested compounds to prevent the growth of four different cell lines was assessed by a standardized MTT assay (Laboratory for Bioengineering protocol CB-005, Kragujevac, Serbia), based on spectrophotometric measurement of the reduction of 3-(4,5-dimethylthiazol-2-yl)-2,5-diphenyltetrazolium bromide (MTT, Acros Organics, NJ, USA 158990010) to purple formazan crystals subsequently dissolved in dimethyl sulfoxide (DMSO; Fisher Chemical, IL, USA D/4121/PB15). A number of 1 × 10^4 cells per well (in 96-well microplates) were seeded and maintained in an incubator for 24 h to allow for cell attachment. After the incubation period, the cells were treated with the investigated compounds in the concentration range from 0.1 to 500 µM dissolved in DMEM. Cytotoxic effect was calculated 24 and 72 h from treatment by determination of the number of viable cells. The absorbance measured at 550 nm and was performed on a microplate reader (Rayto 2100C, China). The cytotoxicity was derived as the ratio of the absorbance of the treated cells divided with the absorbance of negative control (untreated cells) and multiplied by 100 to obtain the percentage of the viable cells.

[2] = system: MRC-5 cells; experiment: MTT cytotoxicity assay, MRC-5 healthy fibroblasts; format: cell-based; conditions: Homo sapiens
Procedure: as §1, §2

[3] = system: MDA-MB-231 cells; experiment: MTT cytotoxicity assay, MDA-MB-231; format: cell-based; conditions: Homo sapiens
Procedure: as §1, §2

[4] = system: HeLa cells; experiment: MTT cytotoxicity assay, HeLa; format: cell-based, human; conditions: for IC50: Homo sapiens, HeLa, MTT; for Selectivity index HeLa/MRC-5 24 h: SI between HeLa and MRC-5, 24 h; for Selectivity index HeLa/MRC-5 72 h: SI between HeLa and MRC-5, 72 h
Procedure: as §1, §2

[5] = read-out: IC50 HCT-116 24 h, HCT-116, 24 h exposure
[6] = HCT-116, 72 h exposure, read-out: IC50 HCT-116 72 h
[7] = MRC5, MRC-5, 72 h exposure, read-out: IC50 MRC-5 72 h
[8] = MRC5, read-out: IC50 MRC-5 24 h, MRC-5, 24 h exposure
[9] = MDA-MB-231, 72 h exposure, read-out: IC50 MDA-MB-231 72 h
[10] = read-out: IC50 MDA-MB-231 24 h, MDA-MB-231, 24 h exposure
[11] = read-out: IC50 HeLa 24 h, 24 h exposure
[12] = 72 h exposure, read-out: IC50 HeLa 72 h

| SMILES | IC50 [1, 5] [µM] | IC50 [1, 6] [µM] | Selectivity index HCT-116/MRC-5 24 h [1] | Selectivity index HCT-116/MRC-5 72 h [1] | IC50 [2, 7] [µM] | IC50 [2, 8] [µM] | IC50 [3, 9] [µM] | IC50 [3, 10] [µM] | IC50 [4, 11] [µM] | IC50 [4, 12] [µM] | Selectivity index HeLa/MRC-5 24 h [4] | Selectivity index HeLa/MRC-5 72 h [4] |
| --- | --- | --- | --- | --- | --- | --- | --- | --- | --- | --- | --- | --- |
| C/C(NCCc1ccc(O)cc1)=C1\C(=O)Oc2ccccc2C1=O [L1, (E)-3-(1-((4-hydroxyphenethyl)amino)ethylidene)chromane-2,4-dione] | > 500 | 170 | 1 | 2.9 | > 500 | > 500 | > 500 | > 500 | > 500 | 452 | 1 | 1.1 |
| C/C(NCC(O)c1ccc(O)cc1)=C1\C(=O)Oc2ccccc2C1=O (stereo not drawn) [L2, (E)-3-(1-((2-hydroxy-2-(4-hydroxyphenyl)ethyl)amino)ethylidene)chromane-2,4-dione] | > 500 | 248 | 1 | 2.0 | > 500 | > 500 | > 500 | > 500 | > 500 | 206 | 1 | 2.4 |
| C/C(NCC(O)c1ccc(O)c(O)c1)=C1\C(=O)Oc2ccccc2C1=O (stereo not drawn) [L3, (E)-3-(1-((2-(3,4-dihydroxyphenyl)-2-hydroxyethyl)amino)ethylidene)chromane-2,4-dione] | > 500 | 107 | 1 | 4.7 | > 500 | > 500 | > 500 | > 500 | > 500 | 495 | 1 | 1 |
| COc1cc(CCN/C(C)=C2/C(=O)Oc3ccccc3C2=O)ccc1O [L4, (E)-3-(1-((4-hydroxy-3-methoxyphenethyl)amino)ethylidene)chromane-2,4-dione] | > 500 | 74 | 1 | 6.8 | > 500 | > 500 | > 500 | > 500 | > 500 | 150 | 1 | 3.3 |
| CC(NCCc1ccc(O)c(O)c1)=C1C(=O)Oc2ccccc2C1=O [L5, 3-(1-((3,4-dihydroxyphenethyl)amino)ethylidene)-chroman-2,4-dione] | > 500 | 73 | 1 | 6.8 | > 500 | > 500 | > 500 | > 500 | > 500 | 92 | 1 | 5.4 |
